Measurements published in ChEMBL document CHEMBL1201862, “PubChem BioAssay data set” (2004).
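48-hour exposure; five concentrations; linearly interpolated endpoints. At the GI50, growth is halved.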 Activity calls are given as the source filed them. Cut-off read from the data, not from the text of the source: active = GI50 up to about 1.1 µM and inactive = higher.

How the values were obtained:
Assay in all cases: growth of human tumour cells (NCI), 48 h
[1] = system: K562
[2] = system: UACC-62
[3] = system: SR
[4] = system: SK-MEL-28
[5] = system: SF-295
[6] = system: KM12
[7] = system: IGROV-1
[8] = system: SNB-19
[9] = system: SK-MEL-5
[10] = system: HCC 2998
[11] = system: HOP-92
[12] = system: NCI-H226
[13] = system: SN12C
[14] = system: CCRF-CEM
[15] = system: BT-549
[16] = system: DU-145
[17] = system: MDA-N
[18] = system: MDA-MB-435
[19] = system: NCI/ADR-RES
[20] = system: SK-OV-3

| Compound | GI50 [1] | GI50 [2] | GI50 [3] | GI50 [4] | GI50 [5] | GI50 [6] | GI50 [7] | GI50 [8] | GI50 [9] | GI50 [10] | GI50 [11] | GI50 [12] | GI50 [13] | GI50 [14] | GI50 [15] | GI50 [16] | GI50 [17] | GI50 [18] | GI50 [19] | GI50 [20] |
| --- | --- | --- | --- | --- | --- | --- | --- | --- | --- | --- | --- | --- | --- | --- | --- | --- | --- | --- | --- | --- |
| COC(=O)c1ccc(CCC2=CC(=O)C=CC2=O)cc1 | 2.37 µM (inactive) | 13.7 µM (inactive) | 2.49 µM (inactive) | 9.42 µM (inactive) | 16.6 µM (inactive) | 11.9 µM (inactive) | 14.6 µM (inactive) | 22.4 µM (inactive) | 12.9 µM (inactive) | 16.7 µM (inactive) | 4.43 µM (inactive) | 16.7 µM (inactive) | 24.5 µM (inactive) | 0.603 µM (active) | 12 µM (inactive) | 18.2 µM (inactive) | 12.5 µM (inactive) | 11.7 µM (inactive) | 20.7 µM (inactive) | – |
| O=[N+]([O-])c1ccc(NN=C2CN3CCN(C2)c2ccccc23)c([N+](=O)[O-])c1 | > 100 µM (inactive) | > 100 µM (inactive) | > 100 µM (inactive) | > 100 µM (inactive) | > 100 µM (inactive) | > 100 µM (inactive) | 97.3 µM (inactive) | > 100 µM (inactive) | > 100 µM (inactive) | > 100 µM (inactive) | 85.3 µM (inactive) | – | > 100 µM (inactive) | > 100 µM (inactive) | > 100 µM (inactive) | > 100 µM (inactive) | > 100 µM (inactive) | > 100 µM (inactive) | > 100 µM (inactive) | > 100 µM (inactive) |
| C=C1CC2(C)CCC(OC(=O)C3(C)OC3C)C(C)(OC(C)=O)C2CC1=C(C)C (stereo not drawn) | > 100 µM (inactive) | > 100 µM (inactive) | > 100 µM (inactive) | > 100 µM (inactive) | > 100 µM (inactive) | > 100 µM (inactive) | > 100 µM (inactive) | > 100 µM (inactive) | > 100 µM (inactive) | > 100 µM (inactive) | > 100 µM (inactive) | – | > 100 µM (inactive) | 96.6 µM (inactive) | > 100 µM (inactive) | > 100 µM (inactive) | > 100 µM (inactive) | > 100 µM (inactive) | > 100 µM (inactive) | > 100 µM (inactive) |
| COc1cc(OC)cc(OCc2nc3cc(C(F)(F)F)ccc3nc2-c2ccccc2)c1 | > 100 µM (inactive) | > 100 µM (inactive) | > 100 µM (inactive) | > 100 µM (inactive) | > 100 µM (inactive) | > 100 µM (inactive) | 0.809 µM (active) | > 100 µM (inactive) | – | > 100 µM (inactive) | > 100 µM (inactive) | 90.8 µM (inactive) | > 100 µM (inactive) | > 100 µM (inactive) | > 100 µM (inactive) | > 100 µM (inactive) | > 100 µM (inactive) | > 100 µM (inactive) | > 100 µM (inactive) | > 100 µM (inactive) |
| C/C=C(\C)C(=O)OC1CC(OC(C)=O)C2(C(=O)OC)COC3C2C1(C)C1C2(C(=O)OC)OCC1(C3O)C1(O)C3CC(C4(O)C=COC4O3)C1(C)O2 (stereo not drawn) | > 100 µM (inactive) | > 100 µM (inactive) | > 100 µM (inactive) | > 100 µM (inactive) | > 100 µM (inactive) | > 100 µM (inactive) | > 100 µM (inactive) | – | > 100 µM (inactive) | 62.5 µM (inactive) | > 100 µM (inactive) | > 100 µM (inactive) | > 100 µM (inactive) | – | > 100 µM (inactive) | > 100 µM (inactive) | 34.4 µM (inactive) | 40.8 µM (inactive) | > 100 µM (inactive) | > 100 µM (inactive) |
| CNc1ccc(C(=O)CC(O)CCC(C)C2OC(=O)CC(O)CC(=O)CC(O)CC(O)CC(O)CC(O)CC3(O)CC(O)C(C(=O)N4CCOCC4)C(CC(OC4OC(C)C(O)C(N)C4O)\C=C/C=C\C=C/C=C/C=C/C=C\C=C/C2C)O3)cc1 (stereo not drawn) | 0.378 µM (active) | 0.258 µM (active) | 0.296 µM (active) | 0.186 µM (active) | 0.446 µM (active) | 0.319 µM (active) | 0.244 µM (active) | 0.365 µM (active) | 0.181 µM (active) | 0.374 µM (active) | 0.281 µM (active) | 0.277 µM (active) | 0.229 µM (active) | – | 0.241 µM (active) | 0.527 µM (active) | 0.304 µM (active) | 0.281 µM (active) | 0.43 µM (active) | 0.418 µM (active) |
| OCC1CCCC1O (stereo not drawn) | > 100 µM (inactive) | > 100 µM (inactive) | > 100 µM (inactive) | > 100 µM (inactive) | > 100 µM (inactive) | > 100 µM (inactive) | > 100 µM (inactive) | > 100 µM (inactive) | > 100 µM (inactive) | > 100 µM (inactive) | > 100 µM (inactive) | > 100 µM (inactive) | > 100 µM (inactive) | > 100 µM (inactive) | > 100 µM (inactive) | > 100 µM (inactive) | > 100 µM (inactive) | > 100 µM (inactive) | > 100 µM (inactive) | – |
| C=CCSC1=N/C(=C\c2ccc(Cl)cc2)C(=O)N1CC=C | 29.5 µM (inactive) | 30.2 µM (inactive) | 27.4 µM (inactive) | 50.2 µM (inactive) | 34.8 µM (inactive) | 24.9 µM (inactive) | 53.8 µM (inactive) | 91.4 µM (inactive) | 16.1 µM (inactive) | 34.8 µM (inactive) | 22.1 µM (inactive) | – | 34.3 µM (inactive) | 21.4 µM (inactive) | 23.5 µM (inactive) | 20.5 µM (inactive) | 32.7 µM (inactive) | 28.8 µM (inactive) | 34 µM (inactive) | 42.8 µM (inactive) |
| COc1cc(C23OCC(Cc4cc5c(cc42)OCO5)C3CO)cc(OC)c1OC (stereo not drawn) | 3.89 µM (inactive) | – | 0.187 µM (active) | > 100 µM (inactive) | 0.266 µM (active) | 0.215 µM (active) | 2.44 µM (inactive) | 3.14 µM (inactive) | 6.7 µM (inactive) | 0.24 µM (active) | > 100 µM (inactive) | 3.85 µM (inactive) | – | 2.92 µM (inactive) | 56.6 µM (inactive) | 2.64 µM (inactive) | 0.402 µM (active) | 0.119 µM (active) | 1.84 µM (inactive) | 3.19 µM (inactive) |
| O=C1C(c2c(O)[nH]c3ccc(Cl)cc23)=Nc2ccccc21 | 7.71 µM (inactive) | 11.8 µM (inactive) | 9.02 µM (inactive) | > 100 µM (inactive) | 10.4 µM (inactive) | 3.08 µM (inactive) | 0.352 µM (active) | 10.3 µM (inactive) | 3.18 µM (inactive) | – | 8.02 µM (inactive) | 6.05 µM (inactive) | 17 µM (inactive) | 27.4 µM (inactive) | 66.4 µM (inactive) | 2.81 µM (inactive) | 6.38 µM (inactive) | 4.3 µM (inactive) | 7.91 µM (inactive) | 3.08 µM (inactive) |
